Results reported in ChEMBL document CHEMBL3351422, “Discovery of N-substituted 7-azaindoline derivatives as potent, orally available M1 and M4 muscarinic acetylcholine receptors selective agonists” (Bioorg Med Chem Lett, 2014).

What was measured:
[1] = species on record: Rattus norvegicus; assay: Inhibition of rat N-type calcium channel at 3 uM by radioligand binding assay
[2] = species on record: Rattus norvegicus; assay: Displacement of [125I]alpha-bungarotoxin from rat nicotinic acetylcholine receptor at 3 uM by radioligand binding assay
[3] = Lipophilicity, log P of the compound; assay type: physicochemical; settings: octanol/water
[4] = Oral bioavailability in dog at 1 mg/kg; assay type: ADME, organism-based, Canis lupus familiaris; settings: in vivo
[5] = Oral bioavailability in rat at 2.5 mg/kg; assay type: ADME, organism-based; settings: in vivo
[6] = target: Alpha-1A adrenergic receptor (Rattus norvegicus) (UniProt P43140); assay: Inhibition of rat alpha1A adrenergic receptor at 3 uM by radioligand binding assay
Alpha-1A adrenergic receptor (Rattus norvegicus), sequence (P43140 whole entry): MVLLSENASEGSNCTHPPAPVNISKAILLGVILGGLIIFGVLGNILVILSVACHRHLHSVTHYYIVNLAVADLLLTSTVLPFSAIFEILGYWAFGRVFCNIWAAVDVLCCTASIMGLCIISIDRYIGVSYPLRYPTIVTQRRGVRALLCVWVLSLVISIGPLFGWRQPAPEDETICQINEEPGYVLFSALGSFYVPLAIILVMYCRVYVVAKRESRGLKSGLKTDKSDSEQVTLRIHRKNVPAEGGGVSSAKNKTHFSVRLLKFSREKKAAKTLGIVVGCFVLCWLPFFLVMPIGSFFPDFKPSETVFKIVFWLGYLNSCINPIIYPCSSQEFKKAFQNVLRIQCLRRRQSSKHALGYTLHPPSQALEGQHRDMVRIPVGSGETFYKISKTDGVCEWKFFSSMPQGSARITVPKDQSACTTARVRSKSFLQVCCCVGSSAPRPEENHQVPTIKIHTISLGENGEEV

[7] = Volume of distribution at steady state in rat at 0.25 mg/kg, iv and 2.5 mg/kg, po; assay type: ADME, organism-based; settings: in vivo, read-out: Vdss
[8] = target: Adenosine receptor A2a (Homo sapiens) (UniProt P29274); assay: Inhibition of human adenosine A2A receptor at 3 uM by radioligand binding assay
Adenosine receptor A2a (Homo sapiens), sequence (P29274 whole entry): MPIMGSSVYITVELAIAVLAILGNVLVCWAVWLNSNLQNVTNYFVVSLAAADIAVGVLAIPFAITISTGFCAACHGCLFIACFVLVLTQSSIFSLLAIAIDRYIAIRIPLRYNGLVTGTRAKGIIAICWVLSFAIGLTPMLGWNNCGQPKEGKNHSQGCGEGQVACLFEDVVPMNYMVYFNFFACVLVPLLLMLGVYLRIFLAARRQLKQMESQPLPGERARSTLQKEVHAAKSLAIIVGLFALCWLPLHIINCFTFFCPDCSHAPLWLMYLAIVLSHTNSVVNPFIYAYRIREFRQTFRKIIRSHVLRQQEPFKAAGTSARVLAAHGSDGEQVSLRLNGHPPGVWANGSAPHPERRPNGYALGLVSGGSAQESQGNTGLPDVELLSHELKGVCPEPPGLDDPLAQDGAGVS

[9] = species on record: Rattus norvegicus; assay: Inhibition of rat GABAA central type receptor muscimol binding site at 3 uM by radioligand binding assay
[10] = target: Muscarinic acetylcholine receptor M3 (Homo sapiens) (UniProt P20309); assay: Intrinsic activity at muscarinic M3 receptor (unknown origin) at 10 uM by calcium mobilization assay; assay type: functional
[11] = target: 5-hydroxytryptamine receptor 3A (Homo sapiens) (UniProt P46098); assay: Inhibition of human 5-HT3 receptor at 3 uM by radioligand binding assay
5-hydroxytryptamine receptor 3A (Homo sapiens), sequence (P46098 whole entry): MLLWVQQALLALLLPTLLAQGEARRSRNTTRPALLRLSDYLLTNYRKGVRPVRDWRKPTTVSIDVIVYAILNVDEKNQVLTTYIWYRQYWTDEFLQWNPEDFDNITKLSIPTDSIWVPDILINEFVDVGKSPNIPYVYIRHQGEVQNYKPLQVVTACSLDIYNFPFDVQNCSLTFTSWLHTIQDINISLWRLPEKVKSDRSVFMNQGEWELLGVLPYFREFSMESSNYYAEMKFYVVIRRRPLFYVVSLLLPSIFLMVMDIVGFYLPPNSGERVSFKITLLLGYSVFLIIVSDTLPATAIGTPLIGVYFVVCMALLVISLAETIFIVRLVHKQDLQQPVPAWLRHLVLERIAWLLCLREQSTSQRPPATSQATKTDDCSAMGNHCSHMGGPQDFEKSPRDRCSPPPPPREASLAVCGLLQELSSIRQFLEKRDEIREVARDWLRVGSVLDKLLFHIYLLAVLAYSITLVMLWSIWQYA

[12] = target: Phosphodiesterase 4 (Homo sapiens) (UniProt P27815+Q08499+Q07343+Q08493); assay: Inhibition of human PDE4 at 3 uM by radioligand binding assay; assay type: protein assay
[13] = target: T1, Muscarinic acetylcholine receptor M4 (Homo sapiens) (UniProt P08173); assay: Agonist activity at muscarinic M4 receptor (unknown origin) at 0.3 uM by calcium mobilization assay; assay type: functional
T1 sequence (whole entry): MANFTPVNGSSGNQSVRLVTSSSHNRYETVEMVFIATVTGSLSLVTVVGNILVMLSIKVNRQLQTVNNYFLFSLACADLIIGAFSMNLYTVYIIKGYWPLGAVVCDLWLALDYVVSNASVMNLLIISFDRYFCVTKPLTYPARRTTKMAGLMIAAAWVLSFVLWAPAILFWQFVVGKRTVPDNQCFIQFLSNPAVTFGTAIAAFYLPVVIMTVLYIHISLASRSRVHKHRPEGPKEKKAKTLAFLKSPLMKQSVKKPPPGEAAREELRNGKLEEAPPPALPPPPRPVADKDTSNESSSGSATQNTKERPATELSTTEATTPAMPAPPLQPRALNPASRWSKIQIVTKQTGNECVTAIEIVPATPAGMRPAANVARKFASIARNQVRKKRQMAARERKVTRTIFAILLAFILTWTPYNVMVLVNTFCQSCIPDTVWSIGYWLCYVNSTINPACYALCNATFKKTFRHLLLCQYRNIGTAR

[14] = target: Mu-type opioid receptor (Homo sapiens) (UniProt P35372); assay: Inhibition of human mu opioid receptor at 3 uM by radioligand binding assay
[15] = target: Delta-type opioid receptor (Homo sapiens) (UniProt P41143); assay: Inhibition of human delta opioid receptor at 3 uM by radioligand binding assay
[16] = target: Voltage-gated inwardly rectifying potassium channel KCNH2 (Homo sapiens, UniProt Q12809); assay: Inhibition of human ERG channel
[17] = target: Beta-2 adrenergic receptor (Homo sapiens) (UniProt P07550); assay: Inhibition of human beta2 adrenergic receptor at 3 uM by radioligand binding assay
Beta-2 adrenergic receptor (Homo sapiens), sequence (P07550 whole entry, looked up): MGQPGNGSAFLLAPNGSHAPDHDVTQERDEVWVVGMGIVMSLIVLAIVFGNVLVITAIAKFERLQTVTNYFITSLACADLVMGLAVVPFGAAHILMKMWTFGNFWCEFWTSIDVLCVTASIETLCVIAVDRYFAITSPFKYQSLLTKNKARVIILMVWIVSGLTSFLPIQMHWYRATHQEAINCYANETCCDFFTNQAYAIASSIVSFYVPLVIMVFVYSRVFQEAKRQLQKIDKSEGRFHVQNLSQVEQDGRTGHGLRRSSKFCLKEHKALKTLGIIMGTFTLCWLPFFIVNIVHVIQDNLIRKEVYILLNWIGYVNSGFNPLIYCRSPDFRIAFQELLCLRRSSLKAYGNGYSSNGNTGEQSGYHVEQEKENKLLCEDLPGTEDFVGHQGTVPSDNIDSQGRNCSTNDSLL

[18] = target: Neuropeptide Y receptor type 1 (Homo sapiens) (UniProt P25929); assay: Inhibition of human neuropeptide YY1 receptor at 3 uM by radioligand binding assay
Neuropeptide Y receptor type 1 (Homo sapiens), sequence (P25929 whole entry): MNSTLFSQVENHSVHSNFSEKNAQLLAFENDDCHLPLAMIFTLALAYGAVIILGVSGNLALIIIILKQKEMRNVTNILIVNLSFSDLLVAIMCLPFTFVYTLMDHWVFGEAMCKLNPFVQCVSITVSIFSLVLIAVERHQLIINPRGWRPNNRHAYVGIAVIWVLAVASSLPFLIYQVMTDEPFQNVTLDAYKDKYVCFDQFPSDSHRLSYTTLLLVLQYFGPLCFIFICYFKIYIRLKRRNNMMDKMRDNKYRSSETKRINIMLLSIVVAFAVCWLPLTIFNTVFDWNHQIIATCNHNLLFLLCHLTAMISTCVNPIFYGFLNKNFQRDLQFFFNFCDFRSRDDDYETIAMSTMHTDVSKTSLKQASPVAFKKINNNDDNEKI

[19] = species on record: Rattus norvegicus; assay: Inhibition of rat GABAA central type receptor flunitrazepam binding site at 3 uM by radioligand binding assay
[20] = target: Muscarinic acetylcholine receptor M1 (Homo sapiens, UniProt P11229); assay: Agonist activity at muscarinic M1 receptor (unknown origin) by calcium mobilization assay; assay type: functional
Muscarinic acetylcholine receptor M1, sequence (P11229 whole entry): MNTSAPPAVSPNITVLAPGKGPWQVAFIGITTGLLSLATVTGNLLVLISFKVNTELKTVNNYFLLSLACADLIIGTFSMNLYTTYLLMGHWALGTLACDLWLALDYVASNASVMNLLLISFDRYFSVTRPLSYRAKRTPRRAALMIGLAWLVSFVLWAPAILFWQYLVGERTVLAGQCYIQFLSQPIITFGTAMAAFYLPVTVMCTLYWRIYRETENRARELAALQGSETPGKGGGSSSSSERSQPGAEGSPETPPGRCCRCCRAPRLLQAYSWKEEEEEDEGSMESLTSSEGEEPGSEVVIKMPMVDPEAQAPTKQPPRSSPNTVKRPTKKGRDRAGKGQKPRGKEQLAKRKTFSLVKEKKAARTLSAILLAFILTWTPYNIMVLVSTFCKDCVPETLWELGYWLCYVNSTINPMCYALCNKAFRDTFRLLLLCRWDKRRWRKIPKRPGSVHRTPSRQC

[21] = target: 5-hydroxytryptamine receptor 1A (Homo sapiens) (UniProt P08908); assay: Inhibition of human 5-HT1A receptor at 3 uM by radioligand binding assay
5-hydroxytryptamine receptor 1A (Homo sapiens), sequence (P08908 whole entry): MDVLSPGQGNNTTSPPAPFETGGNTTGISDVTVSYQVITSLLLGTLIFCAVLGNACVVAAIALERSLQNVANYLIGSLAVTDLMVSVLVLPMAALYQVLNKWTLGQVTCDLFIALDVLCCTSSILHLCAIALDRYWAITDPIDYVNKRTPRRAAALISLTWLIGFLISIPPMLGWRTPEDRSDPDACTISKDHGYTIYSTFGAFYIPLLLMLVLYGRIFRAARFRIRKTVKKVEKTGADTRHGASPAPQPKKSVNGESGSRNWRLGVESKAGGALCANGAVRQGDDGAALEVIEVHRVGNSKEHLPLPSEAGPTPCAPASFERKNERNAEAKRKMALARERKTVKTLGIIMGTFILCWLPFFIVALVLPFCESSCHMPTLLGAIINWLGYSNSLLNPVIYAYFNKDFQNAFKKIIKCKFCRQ

[22] = target: Histamine H1 receptor (Homo sapiens) (UniProt P35367); assay: Inhibition of human histamine H1 receptor at 3 uM by radioligand binding assay
Histamine H1 receptor (Homo sapiens), sequence (P35367 whole entry): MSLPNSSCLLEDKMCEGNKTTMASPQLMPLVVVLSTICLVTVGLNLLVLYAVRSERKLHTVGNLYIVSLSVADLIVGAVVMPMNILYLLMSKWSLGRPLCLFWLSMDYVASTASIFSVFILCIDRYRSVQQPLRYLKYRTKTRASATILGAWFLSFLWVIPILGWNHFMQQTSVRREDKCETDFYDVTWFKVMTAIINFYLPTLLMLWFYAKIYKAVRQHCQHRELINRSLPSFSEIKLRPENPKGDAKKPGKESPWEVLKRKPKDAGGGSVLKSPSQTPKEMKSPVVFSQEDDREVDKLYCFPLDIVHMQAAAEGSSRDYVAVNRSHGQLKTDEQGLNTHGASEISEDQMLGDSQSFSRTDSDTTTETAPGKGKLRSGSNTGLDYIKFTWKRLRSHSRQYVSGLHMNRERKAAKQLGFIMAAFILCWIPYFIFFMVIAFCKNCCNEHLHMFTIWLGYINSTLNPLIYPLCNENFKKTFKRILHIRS

[23] = Blood brain barrier penetration in rat at 0.25 mg/kg, iv and 2.5 mg/kg, po; assay type: ADME, organism-based
[24] = Oral bioavailability in monkey at 2.5 mg/kg; assay type: ADME, organism-based, Macaca mulatta; settings: rhesus monkey, in vivo
[25] = target: T1, Muscarinic acetylcholine receptor M4 (Homo sapiens); assay: Intrinsic activity at muscarinic M4 receptor (unknown origin) by calcium mobilization assay; assay type: functional
[26] = target: T2, Muscarinic acetylcholine receptor M2 (Homo sapiens) (UniProt P08172); assay: Agonist activity at muscarinic M2 receptor (unknown origin) at 0.3 uM by calcium mobilization assay; assay type: functional
T2 sequence (whole entry): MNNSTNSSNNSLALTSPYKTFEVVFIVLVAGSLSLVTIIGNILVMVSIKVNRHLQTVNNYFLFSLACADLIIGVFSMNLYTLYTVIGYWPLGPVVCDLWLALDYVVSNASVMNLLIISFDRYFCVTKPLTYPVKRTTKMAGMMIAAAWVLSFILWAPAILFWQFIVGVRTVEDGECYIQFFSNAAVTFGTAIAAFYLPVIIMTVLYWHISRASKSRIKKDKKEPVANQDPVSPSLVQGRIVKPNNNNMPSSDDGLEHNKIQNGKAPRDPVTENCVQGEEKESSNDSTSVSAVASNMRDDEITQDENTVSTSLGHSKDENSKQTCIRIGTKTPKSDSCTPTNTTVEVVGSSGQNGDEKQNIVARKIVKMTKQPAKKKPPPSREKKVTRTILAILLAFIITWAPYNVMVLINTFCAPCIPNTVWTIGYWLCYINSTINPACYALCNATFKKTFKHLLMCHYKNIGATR

[27] = target: L-type calcium channel, dihydropyridine binding site (Rattus norvegicus, UniProt P22002+P27732+Q02485); assay: Inhibition of rat L-type calcium channel dihydropyridine binding site at 3 uM by radioligand binding assay; assay type: protein assay
[28] = species on record: Rattus norvegicus; assay: Inhibition of rat purinergic P2Y receptor at 3 uM by radioligand binding assay
[29] = Clearance in rat at 0.25 mg/kg, iv and 2.5 mg/kg, po; assay type: ADME, organism-based; settings: in vivo
[30] = target: T2, Muscarinic acetylcholine receptor M2 (Homo sapiens); assay: Intrinsic activity at muscarinic M2 receptor (unknown origin) at 10 uM by calcium mobilization assay; assay type: functional
[31] = system: Rattus norvegicus; assay: Antipsychotic-like effect in po dosed rat assessed as methamphetamine-induced locomotor hyperactivity; assay type: functional
[32] = target: Acetylcholinesterase (Homo sapiens) (UniProt P22303); assay: Inhibition of human acetylcholinesterase at 3 uM by radioligand binding assay
Acetylcholinesterase (Homo sapiens), sequence (P22303 whole entry): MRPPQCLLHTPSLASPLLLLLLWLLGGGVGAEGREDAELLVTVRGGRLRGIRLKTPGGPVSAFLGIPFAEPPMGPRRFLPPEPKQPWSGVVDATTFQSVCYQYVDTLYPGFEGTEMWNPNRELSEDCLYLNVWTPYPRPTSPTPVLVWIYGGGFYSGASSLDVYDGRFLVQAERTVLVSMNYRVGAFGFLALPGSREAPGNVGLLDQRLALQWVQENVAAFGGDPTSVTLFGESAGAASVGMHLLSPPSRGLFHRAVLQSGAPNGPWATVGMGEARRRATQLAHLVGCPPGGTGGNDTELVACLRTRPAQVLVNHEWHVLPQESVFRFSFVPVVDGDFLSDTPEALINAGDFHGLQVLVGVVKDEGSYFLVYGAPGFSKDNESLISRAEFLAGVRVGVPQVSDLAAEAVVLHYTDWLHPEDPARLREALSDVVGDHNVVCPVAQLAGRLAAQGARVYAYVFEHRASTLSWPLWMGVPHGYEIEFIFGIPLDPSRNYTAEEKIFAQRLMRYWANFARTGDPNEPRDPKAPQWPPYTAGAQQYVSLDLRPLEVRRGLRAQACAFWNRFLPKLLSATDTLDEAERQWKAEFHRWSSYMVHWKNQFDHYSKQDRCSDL

[33] = target: Somatostatin receptor type 4 (Homo sapiens) (UniProt P31391); assay: Inhibition of human SST4 receptor at 3 uM by radioligand binding assay
[34] = target: Alpha-1D adrenergic receptor (Homo sapiens) (UniProt P25100); assay: Inhibition of human alpha1D adrenergic receptor at 3 uM by radioligand binding assay
Alpha-1D adrenergic receptor (Homo sapiens), sequence (P25100 whole entry): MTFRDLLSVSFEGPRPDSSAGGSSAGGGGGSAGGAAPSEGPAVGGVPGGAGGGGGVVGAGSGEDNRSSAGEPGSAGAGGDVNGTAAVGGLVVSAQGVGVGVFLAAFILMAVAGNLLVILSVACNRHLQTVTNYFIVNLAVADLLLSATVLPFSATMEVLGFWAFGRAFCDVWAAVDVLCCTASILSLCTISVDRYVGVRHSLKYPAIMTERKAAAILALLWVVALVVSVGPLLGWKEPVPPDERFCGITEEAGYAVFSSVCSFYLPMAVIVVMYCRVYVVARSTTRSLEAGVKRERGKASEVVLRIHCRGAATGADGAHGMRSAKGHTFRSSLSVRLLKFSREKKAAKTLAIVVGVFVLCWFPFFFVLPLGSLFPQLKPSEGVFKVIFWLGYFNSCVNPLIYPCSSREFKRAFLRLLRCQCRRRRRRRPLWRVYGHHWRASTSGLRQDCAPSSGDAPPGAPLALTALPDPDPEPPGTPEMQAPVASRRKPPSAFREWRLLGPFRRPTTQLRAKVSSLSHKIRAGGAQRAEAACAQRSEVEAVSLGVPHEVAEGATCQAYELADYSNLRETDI

Structure (SMILES): CCOC(=O)N1CCC(CN2CCC3(CC2)CN(C(=O)N(C)C)c2ncccc23)CC1.O=C(O)/C=C/C(=O)O
- inhibition [1]: 4%
- inhibition [2]: 7%
- logP [3]: 1.3
- bioavailability [4]: 49.3%
- bioavailability [5]: 51.1%
- inhibition [6]: 37%
- Vd [7]: 1.8 L/kg
- inhibition [8]: 7%
- inhibition [9]: 2%
- Intrinsic activity [10]: 2%
- inhibition [11]: -10%
- inhibition [12]: -5%
- Activity [13]: 118%
- inhibition [14]: 3%
- inhibition [15]: -1%
- IC50 [16]: > 10000 nM
- inhibition [17]: -1%
- inhibition [18]: -2%
- inhibition [19]: -5%
- EC50 [20]: 133 nM
- inhibition [21]: -6%
- inhibition [22]: -2%
- Kp [23]: 0.7
- bioavailability [24]: 39.8%
- Intrinsic activity [25]: 108%
- Activity [26]: 10%
- inhibition at 3 µM [27]: 11%
- inhibition [28]: 9%
- clearance [29]: 28.4 mL/min/kg
- Intrinsic activity [30]: 5%
- ED50 [31]: 1.44 mg/kg
- inhibition [32]: 5%
- inhibition [33]: -10%
- inhibition [34]: 10%
